Measurements published in patent publication US20240391940A1, “FUSED RING-CONTAINING COMPOUND, APPLICATION THEREOF, AND COMPOSITION CONTAINING SAME” (GenEros Biopharma Ltd., priority 2020, published 2024).
Several values for one entry are separate records, joined by “and”; a condition that tells them apart may be missing. Equal entries are not always repeated.

Key:
[1] = system: Apoe KO mouse atherosclerosis model; test: Atherosclerosis model: aortic plaque En-face staining and plaque area; format: in vivo, C57BL/6 Apoe KO mice; settings: HFD + 284-60 mpk, PO QD 8 W, individual mice; in % (unit assumed)
Description: (§1) Method: Apoe KO mice were tested for basal blood lipid levels and divided into a normal control group and a high-fat group. After 8 weeks of housing, the mice from the high-fat group were divided into 4 groups of about 8: a normal diet group (Chow), a high-fat diet model group (HFD), an Atorvastatin positive group (HFD+atorvastatin 5 mpk, QD), and a GEN1-284s group (284-60 mpk, QD). Oral administration was performed for 8 consecutive weeks, and the effect of the compound on the following indicators in Apoe KO mice was observed: 4 blood lipid tests (TC, TG, HDL-C and LDL-C), aortic plaque En-face staining, and pathological oil red staining of the cardiac outflow tract.
(§2) Mice from the groups except for the normal diet control group (Chow) were fed with high-fat feed every day for […]. From week 9, each group was orally administered solvent or a corresponding test compound, and body weight data were recorded every day for 8 consecutive weeks. After the first 8 weeks' high-fat diet, blood samples were taken and centrifuged to separate serum, and the serum was tested for blood lipid levels (TCHO, TG, LDL-C and HDL-C). The mice were randomly grouped according to the TCHO results and body weight. During the subsequent 8 weeks of administration, blood lipid tests (TCHO, TG, LDL-C and HDL-C) were run once every 4 weeks.
At the end of the experiment, the mice were euthanized by CO2 inhalation, and their hearts and aortas (from the aortic arch to the iliac artery) were isolated. The isolated artery was dissected longitudinally from the aortic arch to the iliac artery, fixed in 4% paraformaldehyde for 30 min, synchronized with 60% isopropanol for 10 min, then stained in 60% oil red for 30 min, and then washed with 60% isopropanol 3 times for 5 min each time. Finally, the stained aorta was washed with deionized water and photographed. The proportion of red plaque areas was measured using Image Pro Plus 6.0 (Media Cybernetics, MD, US).

[2] = system: Apoe KO mouse atherosclerosis model; test: Atherosclerosis model: plaques in the cardiac (left ventricular) outflow tract; format: in vivo, C57BL/6 Apoe KO mice; settings: HFD + 284-60 mpk, PO QD 8 W, individual mice; in %
Description: as §1, §2
Mouse heart samples were fixed overnight in 4% paraformaldehyde solution and dehydrated in sucrose solution. Then, the samples were embedded with OCT (Sakura, Japan) under a stereo microscope and made into 10 μm frozen sections. The sections were stained with oil red ORO and then subjected to routine pathological examinations. Images of the outflow tract were acquired under an optical microscope at 4× magnification, and high-quality morphological observations were carried out using an eyepiece with 20× magnification. The percentage of intimal lesions in the cardiac outflow tract was calculated. The detection criteria followed the criteria for histological classification of human atherosclerotic disease, which are described in detail below:
The area of plaques in the left ventricular outflow tract was measured using a microscope, and the proportion of plaques in the left ventricular outflow tract was calculated; this value reflects the degree of stenosis in the cardiac outflow tract vessel.

[3] = system: IMQ-induced psoriasis mouse model; test: IMQ-induced psoriasis mouse model (PASI scoring); format: in vivo, Balb/c mice; design: key to skin thickening in psoriasis mice (score) / skin redness in psoriasis mice (score) / skin scaling in psoriasis mice (score): 0 = none to 4 = very severe, per sign; settings: 284-30 (30 mpk PO QD)
Description: Method: This experiment used a total of 19 mice. A natural skin observation control (n=1). 2 cm^2 of hair was shaved off the backs of […] on day 0, the stubble was removed with a mild depilatory cream, and the original skin was photographed. 62.5 mg of IMQ was applied to each of the mice. There was a mock group (n=6), a DEX (3 mg/kg, PO., qD) group (n=6), and a GEN1-284s (30 mg/kg, PO, qD) group (n=6). On the day of modeling, administration was performed in a volume of 100 μL/20 g body weight 4 h after IMQ application. The PASI scoring method was used to score the erythema, swelling and scaling on the skin of the mice. The experiment took a total of 6 days. The first day was set to day 0. IMQ application and administration were not performed on day 5. The mice were sacrificed with carbon dioxide at the end of the experiment.
The test animals were anesthetized with isoflurane. 2 cm^2 of hair was shaved off the backs of the mice, and the stubble was removed with a depilatory cream. IMQ application was performed for a total of 5 days, from day 0 to day 4. Scoring and IMQ application were performed every morning. Administration was performed in the afternoon
Desquamation (D): means epidermal cells flake off. The severity scores of skin lesions were as follows: • 0=none; this sign cannot be confirmed by careful observation • 1=mild; this sign can be confirmed but careful observation is required • 2=moderate; this sign is more visible and can be confirmed immediately • 3=severe; this sign is marked. • 4=very severe; this sign is very marked.
Induration I: 0—skin lesions are at the same level as normal skin; • 1—skin lesions are at slightly higher levels than normal skin surface; • 2—lesions moderately stick out and have round or slope-shaped borders; • 3—skin lesions are thick and markedly stick out; • 4—skin lesions are very thick and very markedly stick out.
Erythema E: • 0—no visible erythema; • 1—light red; • 2—red; • 3—dark red; • 4—the red is very dark

[4] = system: Apoe KO mouse atherosclerosis model; test: Atherosclerosis model (Apoe KO mice, high-fat diet): blood lipid tests TCHO, TG, LDL-C, HDL-C; format: in vivo, C57BL/6 Apoe KO mice; design: blood lipids (CHO) in Apo E−/− mice / blood lipids (TG) in Apo E−/− mice / blood lipids (HDL-C) in Apo E−/− mice / blood lipids (LDL-C) in Apo E−/− mice: unit not given here; settings: HFD + 284-60 mpk
Description: as §1, §2
Mice were fasted overnight, and blood (150 μL) was collected via mandibular blood sampling or eye ball removal (for endpoint only) and left at room temperature for 2 h. The blood was centrifuged at 4° C. at 7000 rpm for 10 min, and serum was pipetted, quick-frozen in dry ice and then stored at −80° C. before analysis. The serum was tested for the biochemical indicators TCHO, TG, LDL-C and HDL-C using kits and a microplate reader.

[5] = DAY 1, individual mice, 30 mg/kg
[6] = DAY 2, individual mice, 30 mg/kg
[7] = DAY 3, individual mice, 30 mg/kg
[8] = DAY 4, individual mice, 30 mg/kg
[9] = DAY 5, individual mice, 30 mg/kg

## O=C(Cc1ccc2ncccc2c1)N1CCC(n2c(=O)n(COP(=O)(O)O)c3cccc(C(F)(F)F)c32)CC1 [Compound 284]
[1]
  atherosclerotic plaques in mice (proportion of arterial plaque area): 14.51 and 15.36 and 6.043 and 8.803 and 8.747 and 3.497 and 13.32 and 11.93
[2]
  plaques in the cardiac outflow tracts of mice (proportion of plaques in the left ventricular outflow tract): 3.172 and 8.444 and 8.652 and 1.278 and 0.625 and 2.394 and 7.368
[3]; DAY 0, individual mice
  overall effect on the skin of psoriasis mice (score): 0
  skin redness in psoriasis mice (score): 0
  skin scaling in psoriasis mice (score): 0
  skin thickening in psoriasis mice (score): 0
[3]; [5]
  overall effect on the skin of psoriasis mice (score): 1.667 and 1.167 and 1 and 2.333 and 2 and 0.6667
  skin redness in psoriasis mice (score): 1 and 0.6667 and 0.8333 and 0.5 and 1.167 and 0
  skin scaling in psoriasis mice (score): 0.1667 (3×) and 0 and 0.8333 and 0.3333
  skin thickening in psoriasis mice (score): 0.5 (4×) and 0 and 1
[3]; [6]
  overall effect on the skin of psoriasis mice (score): 1.5 (2×) and 2 and 1.333 and 2.333 (2×)
  skin redness in psoriasis mice (score): 0.8333 and 1 and 0.5 (2×) and 0.3333 and 0.1667
  skin scaling in psoriasis mice (score): 0.1667 and 0.5 and 0.3333 and 0.8333 (2×) and 1
  skin thickening in psoriasis mice (score): 0.5 (4×) and 1 (2×)
[3]; [7]
  overall effect on the skin of psoriasis mice (score): 3.333 (3×) and 2.333 and 2.5 and 2.167
  skin redness in psoriasis mice (score): 1 (2×) and 0.8333 (2×) and 0.6667 and 0.5
  skin scaling in psoriasis mice (score): 0.8333 and 0.5 and 1.833 and 0.6667 (2×) and 1.167
  skin thickening in psoriasis mice (score): 1.5 (2×) and 1 (3×) and 0.5
[3]; [8]
  overall effect on the skin of psoriasis mice (score): 2.667 and 3.667 (2×) and 2.833 (2×) and 3
  skin redness in psoriasis mice (score): 1.333 and 1 (2×) and 0.6667 and 1.167 and 0.8333
  skin scaling in psoriasis mice (score): 1.333 and 1.667 and 1.167 and 1 and 1.5 (2×)
  skin thickening in psoriasis mice (score): 0 and 1 (4×) and 0.5
[3]; [9]
  overall effect on the skin of psoriasis mice (score): 3 (2×) and 2.667 and 4.333 and 3.5 (2×)
  skin redness in psoriasis mice (score): 1.5 and 0.6667 (3×) and 1 and 0.5
  skin scaling in psoriasis mice (score): 1.5 and 1 and 2.333 and 1.333 and 1.833 and 2.5
  skin thickening in psoriasis mice (score): 0 and 1 (4×) and 0.5
[4]; Time 1, individual mice
  blood lipids (CHO) in Apo E−/− mice: 0.7986 and 0.8043 and 0.8562 and 0.7873 and 0.8278 and 1.372 and 1.184
  blood lipids (HDL-C) in Apo E−/− mice: 1.371 and 0.5315 and 1.057 and 0.9966 and 1.123 and 1.022 and 1.153
  blood lipids (LDL-C) in Apo E−/− mice: 0.6872 and 1.011 and 0.7654 and 0.5196 and 0.7151 and 1.05 and 1.587
  blood lipids (TG) in Apo E−/− mice: 0.4337 and 0.6308 and 0.6265 and 0.755 and 0.7465 and 0.995 and 1.031
[4]; Time 2, individual mice
  blood lipids (CHO) in Apo E−/− mice: 1.233 and 0.8693 and 1.165 and 0.9214 and 0.6106 and 1.043 and 0.9931 and 1.18
  blood lipids (HDL-C) in Apo E−/− mice: 2.122 and 0.9935 and 0.9789 and 1.033 and 0.8106 and 1.037 and 1.827 and 1.565
  blood lipids (LDL-C) in Apo E−/− mice: 1.374 and 0.6809 and 2.129 and 1.097 and 0.9183 and 1.393 and 1.144 and 0.9377
  blood lipids (TG) in Apo E−/− mice: 1.051 (2×) and 0.7809 and 1.131 and 1.303 and 1.009 and 1.451 and 1.117
[4]; Time 3, individual mice
  blood lipids (CHO) in Apo E−/− mice: 1.388 and 0.8444 and 1.354 and 0.78 and 1.427 and 1.407 and 1.241 and 1.477
  blood lipids (HDL-C) in Apo E−/− mice: 2.24 and 0.5362 and 0.9059 and 0.8576 and 1.163 and 1.018 (2×) and 1.067
  blood lipids (LDL-C) in Apo E−/− mice: 1.218 and 0.622 and 1.641 and 0.9017 and 1.494 and 1.215 and 2.628 and 1.406
  blood lipids (TG) in Apo E−/− mice: 0.8373 and 0.8015 and 1.448 and 0.7657 and 0.9226 and 1.222 and 1.943 and 1.2
[4]; Time 4, individual mice
  blood lipids (CHO) in Apo E−/− mice: 1.59 and 1.257 and 1.396 and 0.4939 and 0.5475 and 1.048 and 1.029 and 1.174
  blood lipids (HDL-C) in Apo E−/− mice: 1.04 and 0.5331 and 1.239 and 0.8199 and 0.5772 and 0.511 and 0.5552 and 1.57
  blood lipids (LDL-C) in Apo E−/− mice: 1.177 and 0.9355 and 0.8511 and 0.1725 and 0.4792 and 1.162 and 1.093 and 0.5061
  blood lipids (TG) in Apo E−/− mice: 1.059 and 0.6674 and 1.093 and 0.7289 and 1.028 and 0.7597 and 1.227 and 1.278
